# From US20260001928A1 (CORTERIA PHARMACEUTICALS, priority 2022, published 2026)
# *1 amine or outer side, *2 acyl side, *3 side chain or, on linkers, in order; H or OH if unused. Where a SMILES comes first, the peptide text is derived from it. Side-chain parts run from the residue outwards. [ ]: non-standard residue; d: D form. The star is where a group is joined. C20 diacid = O=C(O)CCCCCCCCCCCCCCCCCCC(=O)*; C18 diacid = O=C(O)CCCCCCCCCCCCCCCCC(=O)*; C16 diacid = O=C(O)CCCCCCCCCCCCCCC(=O)*; γGlu = O=C(O)[C@H](CCC(=O)[*:2])N[*:1]; NMeI = CC[C@H](C)[C@H](NC)C(=O)O; Pentanoyl = CCCCC(=O)*; AEEA = NCCOCCOCC(=O)O; Aib = CC(C)(N)C(=O)O
# Key:
# human CRF2a receptor = biological target: T1, human CRF2a receptor (Homo sapiens, UniProt Q13324); experiment: Activity at human CRF2a receptor, cAMP functional assay in TeloHEAC cells; assay type: cell-based; conditions: TeloHEAC cells stably expressing human CRF2a receptor, relative to urocortin 2 (100 nM = 100%)
# T1 construct: expressed in transfected cells; host or cells: TeloHEAC cells
# T1 sequence (Q13324 1-411): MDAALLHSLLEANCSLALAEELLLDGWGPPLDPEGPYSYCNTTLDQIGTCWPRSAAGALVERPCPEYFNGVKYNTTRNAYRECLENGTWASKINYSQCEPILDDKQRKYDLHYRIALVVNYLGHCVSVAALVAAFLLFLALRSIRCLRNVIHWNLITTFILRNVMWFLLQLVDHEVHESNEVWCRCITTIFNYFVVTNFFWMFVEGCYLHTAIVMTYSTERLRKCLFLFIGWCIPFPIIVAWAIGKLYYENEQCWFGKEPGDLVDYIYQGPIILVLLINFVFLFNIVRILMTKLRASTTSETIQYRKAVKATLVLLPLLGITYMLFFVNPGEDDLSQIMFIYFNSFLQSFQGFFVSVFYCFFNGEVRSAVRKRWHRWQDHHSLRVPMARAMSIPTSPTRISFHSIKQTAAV
# Procedure, shortened: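 TeloHEAC cells stably expressing human CRF2a (10000 cells/well, suspended in HBSS/20 mM HEPES with 2 mM IBMX) were exposed to compounds for 30 min at 37 °C. cAMP was read as the 665/620 nm fluorescence ratio after 1 h at room temperature. EC50 was derived relative to 100 nM urocortin 2, set as 100%.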
# CFR1R receptor = biological target: T2, CFR1R receptor (Homo sapiens, UniProt P34998); experiment: Activity at anti-target CFR1R receptor, cAMP assay in CRF1R-overexpression CHO-K1 cells; assay type: cell-based; conditions: 100% = Sauvagine at 100 nM; for EC50: cAMP
# T2 construct: host or cells: CHO-K1 (clone 2)
# T2 sequence (P34998 24-415): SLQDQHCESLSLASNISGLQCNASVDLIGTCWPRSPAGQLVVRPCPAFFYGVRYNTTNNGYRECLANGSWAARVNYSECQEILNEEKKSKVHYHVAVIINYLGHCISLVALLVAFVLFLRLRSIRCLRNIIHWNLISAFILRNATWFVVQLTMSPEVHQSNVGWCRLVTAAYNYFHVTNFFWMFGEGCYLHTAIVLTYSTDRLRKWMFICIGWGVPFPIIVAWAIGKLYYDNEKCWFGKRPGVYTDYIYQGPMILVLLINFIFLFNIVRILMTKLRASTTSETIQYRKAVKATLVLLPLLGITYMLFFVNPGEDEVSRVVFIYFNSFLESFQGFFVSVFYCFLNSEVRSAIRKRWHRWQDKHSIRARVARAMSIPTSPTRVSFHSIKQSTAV
# Procedure, shortened: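 Clone 2; cryopreserved stocks (10% DMSO); 4000 cells/well final; 100% activation = Sauvagine 100 nM; otherwise as TeloHAEC protocol.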
# [1] = In vitro plasma stability, human plasma; assay type: in vitro ADME; design: dose or concentration left out as unconfirmed; conditions: Human PLM, 37° C.
# [2] = In vitro plasma stability, rat plasma; assay type: in vitro ADME; design: remaining at 2 h: dose or concentration left out as unconfirmed; conditions: male, Sprague Dawley, plasma; Rat PLM, 37° C.
# Protocol: In vitro plasma metabolic stability was studied in male Sprague Dawley rats and human. Test compounds were incubated at 3 M for 2 hours at 37° C. At each time point (0, 0.25, 1 and 2 h), samples were prepared for analysis by means of a single step protein precipitation technique by adding 150 μL of ethanol, 0.1% formic acid to 50 μL aliquots of plasma. Samples were mixed by vortex for homogeneity and then subjected to centrifugation at 14000 rpm for 15 min. The supernatant (100 μL) was collected, diluted with 100 μL of water, 0.1% formic acid and analyzed by LC-HRMS (TripleTOF 6600+, AB Sciex). For each test compound, the area ratios at each time point were compared to the 0 h area ratio and converted to a percentage remaining.
# [3] = In vitro plasma stability, minipig plasma; assay type: in vitro ADME; design: remaining at 2 h: dose or concentration left out as unconfirmed; conditions: pig, plasma; Minipig PLM, 37° C.
# [4] = Chemical stability in buffer (pH 7.4 / pH 4.5), % purity loss; assay type: physicochemical; conditions: 40° C. vs 5° C., 14 or 28 days; for Buffer stability pH 7.4 % purity loss: 100 mM phosphate buffer pH 7.4
# Procedure, shortened: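 LC-UV gave % loss after 14 or 28 days of storage at 5 °C or 40 °C. Samples were diluted supernatants from compound incubated 1 h at room temperature at 10 mg/mL target, in 100 mM acetate pH 4.5 or 100 mM phosphate pH 7.4.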
# rat CRF2 a = biological target: T3, rat CRF2 a (Rattus norvegicus, UniProt P47866); experiment: Activity at rat CRF2 a, cAMP assay in A7R5 rat aortic smooth muscle cells; assay type: cell-based; conditions: 0% HSA, 100% = Sauvagine at 100 nM
# T3 construct: host or cells: A7R5 rat aortic smooth muscle cells
# Protocol: The A7R5 rat aortic smooth muscle cell line used in this study was purchased from ATCC.
# Cells were grown in a 10 cm dish at 37° C./5% CO2 in medium (DMEM/10% FBS) to near confluence. At that stage, cells were harvested, resuspended to 10 million/mL in culture medium and with 5% DMSO. 1 mL vial aliquots were slowly frozen to −80° C. in isopropanol and then transferred in liquid nitrogen for storage.
# These vials were used to run the experiment following the procedure reported in the previous paragraph, except for the compound used in the control well to define the 100% activation (Sauvagine at 100 nM) and the cell density (final cell density: 5000 cells/well).
# [5] = In vitro subcutaneous tissue supernatant (SCts) stability and metabolite identification, rat; assay type: in vitro ADME; design: remaining at 2 h: dose or concentration left out as unconfirmed; conditions: male, Sprague Dawley; rat subcutaneous tissue supernatant (SCts), 37° C, 2 h
# [6] = Pharmacokinetics in male Sprague Dawley rats after subcutaneous administration; assay type: in vivo; conditions: plasma, rat, SC
# Sprague Dawley rats = experiment: Effect on systolic blood pressure, telemetry in Sprague Dawley rats; assay type: in vivo, rat; conditions: 0.1 mg/kg SC
# Procedure, shortened: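 Values are % change from a 1 h pre-dose baseline in systolic pressure, tracked by telemetry for up to 48 hours after a single 0.1 mg/kg subcutaneous dose. Rats (Sprague Dawley, n=2 per peptide) carried aortic catheters and recovered at least 10 days post-surgery; duration of action marks the last time point still showing an effect.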
# [7] = Pharmacokinetics in male Sprague Dawley rats after subcutaneous administration; assay type: in vivo; conditions: plasma, rat; for AUC(0-t) / half-life: IV
# Rat PLM = conditions: male Sprague Dawley rats, 37° C., up to 2 hours
# Human PLM = conditions: 37° C., up to 2 hours
# T3 sequence (P47866 27-431 isoform P47866-2 limits assumed): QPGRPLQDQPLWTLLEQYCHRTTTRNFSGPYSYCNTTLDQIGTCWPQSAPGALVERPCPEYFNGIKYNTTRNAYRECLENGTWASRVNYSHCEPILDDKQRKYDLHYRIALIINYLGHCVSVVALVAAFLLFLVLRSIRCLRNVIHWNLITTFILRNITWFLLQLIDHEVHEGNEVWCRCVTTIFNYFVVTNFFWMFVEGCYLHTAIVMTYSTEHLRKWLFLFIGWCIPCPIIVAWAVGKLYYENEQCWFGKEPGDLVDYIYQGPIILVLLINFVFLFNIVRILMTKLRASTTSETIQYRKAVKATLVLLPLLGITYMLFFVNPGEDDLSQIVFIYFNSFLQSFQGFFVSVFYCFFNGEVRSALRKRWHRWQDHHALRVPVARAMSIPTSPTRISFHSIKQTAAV
compound,measurement,setting,value
CCCCC(=O)N[C@H](C(=O)N[C@@H](CC(C)C)C(=O)N[C@@H](CO)C(=O)N[C@@H](CC(C)C)C(=O)N[C@@H](CC(=O)O)C(=O)N[C@@H](C(=O)N1CCC[C@H]1C(=O)N[C@H](C(=O)N[C@@H](CCCCN)C(=O)N[C@@H](CC(C)C)C(=O)N[C@@H](CCCCNC(=O)CC[C@H](NC(=O)CCCCCCCCCCCCCCC(=O)O)C(=O)O)C(=O)N[C@@H](CCCCN)C(=O)N[C@H](C(=O)N[C@@H](CC(C)C)C(=O)N[C@@H](CC(C)C)C(=O)N[C@@H](CCC(=O)O)C(=O)N[C@@H](CCC(N)=O)C(=O)N[C@@H](CCC(=O)O)C(=O)N[C@@H](CCCCN)C(=O)N[C@@H](CCC(N)=O)C(=O)N[C@@H](CCCCN)C(=O)N[C@@H](CCCCN)C(=O)N[C@@H](CCC(N)=O)C(=O)N[C@@H](CCCNC(=N)N)C(=O)N[C@@H](CCC(=O)O)C(=O)N[C@@H](CCC(N)=O)C(=O)N[C@@H](C)C(=O)N[C@@H](CCC(=O)O)C(=O)N[C@H](C(=O)N[C@@H](CC(N)=O)C(=O)NC(C)(C)C(=O)N[C@@H](CCC(N)=O)C(=O)N[C@H](C(=O)N[C@@H](CC(C)C)C(=O)N[C@@H](C)C(=O)N[C@@H](CCC(N)=O)C(=O)N[C@H](C(N)=O)C(C)C)[C@@H](C)CC)[C@@H](C)O)[C@@H](C)CC)[C@@H](C)CC)C(C)C)C(C)C [compound 80] (Pentanoyl-VLSLD[dV]PIKLK([γGlu-C16 diacid])KILLEQEKQKKQREQAETN[Aib]QILAQV-NH2),EC50,human CRF2a receptor,0.35 nM
same,Emax (% I),CFR1R receptor,10 % I
same,EC50,CFR1R receptor,> 250 nM
same,remaining at 2 h,[1],101%
same,remaining at 2 h,[2],98%
same,remaining at 2 h,[3],104%
same,Buffer stability pH 7.4 % purity loss,[4],0/nd ^ %
CC[C@H](C)[C@H](NC)C(=O)N[C@H](C(=O)N[C@@H](CC(C)C)C(=O)N[C@@H](CO)C(=O)N[C@@H](CC(C)C)C(=O)N[C@@H](CC(=O)O)C(=O)N[C@@H](C(=O)N1CCC[C@H]1C(=O)N[C@H](C(=O)N[C@@H](CCCCN)C(=O)N[C@@H](CC(C)C)C(=O)N[C@@H](CCCCNC(=O)CC[C@H](NC(=O)CCCCCCCCCCCCCCCCC(=O)O)C(=O)O)C(=O)N[C@@H](CCCCN)C(=O)N[C@H](C(=O)N[C@@H](CC(C)C)C(=O)N[C@@H](CC(C)C)C(=O)N[C@@H](CCC(=O)O)C(=O)N[C@@H](CCC(N)=O)C(=O)N[C@@H](CCC(=O)O)C(=O)N[C@@H](CCCCN)C(=O)N[C@@H](CCC(N)=O)C(=O)N[C@@H](CCCCN)C(=O)NC(C)(C)C(=O)N[C@@H](CCC(N)=O)C(=O)N[C@@H](CCCNC(=N)N)C(=O)N[C@@H](CCC(=O)O)C(=O)N[C@@H](CCC(N)=O)C(=O)N[C@@H](C)C(=O)N[C@@H](CCC(=O)O)C(=O)N[C@H](C(=O)N[C@@H](CC(N)=O)C(=O)NC(C)(C)C(=O)N[C@@H](CCC(N)=O)C(=O)N[C@H](C(=O)N[C@@H](CC(C)C)C(=O)N[C@@H](C)C(=O)N[C@@H](CCC(N)=O)C(=O)N[C@H](C(N)=O)C(C)C)[C@@H](C)CC)[C@@H](C)O)[C@@H](C)CC)[C@@H](C)CC)C(C)C)C(C)C [compound 145] (H-[NMeI]VLSLD[dV]PIKLK([γGlu-C18 diacid])KILLEQEKQK[Aib]QREQAETN[Aib]QILAQV-NH2),EC50,rat CRF2 a,0.05 nM
same,remaining at 2 h,[5],76%
same,Buffer stability pH 7.4 % purity loss,[4],0.0/Not Tested %
same,AUC(0-t),[6]; 0.1 mg/kg,4200 ng·h/mL
same,Cmax,[6]; 0.1 mg/kg,295 ng/mL
same,"Systolic blood pressure (Mean) % change from baseline, 8 h","Sprague Dawley rats; 8 h, n=2",−23%
same,"Systolic blood pressure (Mean) % change from baseline, 12 h","Sprague Dawley rats; 12 h, n=2",−21%
same,"Systolic blood pressure (Mean) % change from baseline, 24 h","Sprague Dawley rats; 24 h, n=2",−14%
same,Duration of action,Sprague Dawley rats; last time point with an effect on BP still observed,>24 h
same,AUC(0-t),[7]; 0.05 mg/kg,4100 ng·h/mL
same,half-life,[7]; 0.05 mg/kg,5.8 h
same,Tmax,"[7]; SC, 0.1 mg/kg",8 h
Ac-IVLSLDvPIKLK*KILLEQEKQKKQREQAETN4-PipQILAQV-NH2,not cleaved,Rat PLM,96% remaining at 2 hours
same,not cleaved,Human PLM,104% remaining at 2 hours
CC[C@H](C)[C@H](NC)C(=O)N[C@H](C(=O)N[C@@H](CC(C)C)C(=O)N[C@@H](CO)C(=O)N[C@@H](CC(C)C)C(=O)N[C@@H](CC(=O)O)C(=O)N[C@@H](C(=O)N1CCC[C@H]1C(=O)N[C@H](C(=O)N[C@@H](CCCCN)C(=O)N[C@@H](CC(C)C)C(=O)N[C@@H](CCCCNC(=O)COCCOCCNC(=O)CC[C@H](NC(=O)CCCCCCCCCCCCCCCCCCC(=O)O)C(=O)O)C(=O)N[C@@H](CCCCN)C(=O)N[C@H](C(=O)N[C@@H](CC(C)C)C(=O)N[C@@H](CC(C)C)C(=O)N[C@@H](CCC(=O)O)C(=O)N[C@@H](CCC(N)=O)C(=O)N[C@@H](CCC(=O)O)C(=O)N[C@@H](CCCCN)C(=O)N[C@@H](CCC(N)=O)C(=O)N[C@@H](CCCCN)C(=O)NC(C)(C)C(=O)N[C@@H](CCC(N)=O)C(=O)N[C@@H](CCCNC(=N)N)C(=O)N[C@@H](CCC(=O)O)C(=O)N[C@@H](CCC(N)=O)C(=O)N[C@@H](C)C(=O)N[C@@H](CCC(=O)O)C(=O)N[C@H](C(=O)N[C@@H](CC(N)=O)C(=O)NC(C)(C)C(=O)N[C@@H](CCC(N)=O)C(=O)N[C@H](C(=O)N[C@@H](CC(C)C)C(=O)N[C@@H](C)C(=O)N[C@@H](CCC(N)=O)C(=O)N[C@H](C(N)=O)C(C)C)[C@@H](C)CC)[C@@H](C)O)[C@@H](C)CC)[C@@H](C)CC)C(C)C)C(C)C [compound 234] (H-[NMeI]VLSLD[dV]PIKLK([AEEA-γGlu-C20 diacid])KILLEQEKQK[Aib]QREQAETN[Aib]QILAQV-NH2),EC50,human CRF2a receptor,0.09 nM
same,Emax (% I),CFR1R receptor,15 % I
same,EC50,CFR1R receptor,> 250 nM
same,EC50,rat CRF2 a,0.05 nM
same,remaining at 2 h,[5],68%
same,Buffer stability pH 4.5 % purity loss,[4]; 100 mM acetate buffer pH 4.5,0.0%
same,Buffer stability pH 7.4 % purity loss,[4],−0.1%
same,AUC(0-t),[6]; 0.05 mg/kg,2730 ng·h/mL
same,Cmax,[6]; 0.05 mg/kg,95 ng/mL
same,Tmax,[6]; 0.05 mg/kg,6 h
same,half-life,[6]; 0.05 mg/kg,7.5 h
same,AUC(0-t),[7]; 0.025 mg/kg,2700 ng·h/mL
same,half-life,[7]; 0.025 mg/kg,7 h
